# Reference: patent US20140155384A1, “COMPOUNDS AND METHODS OF TREATING DIABETES” (Medivation Technologies, Inc., priority 2011, published 2014)
# Columns and labels:
# [1] = target: T1, rat adrenergic α1B receptor (Rattus norvegicus, UniProt P15823); assay: Radioligand binding, adrenergic α1B receptor ([3H]Prazosin); conditions: 0.1 μM compound, Wistar rat liver, read-out: Percentage inhibition of ligand binding, Adrenergic α1B
# T1 construct: rat adrenergic α1B receptor obtained from Wistar Rat liver; from tissue; host or cells: Wistar rat liver
# T1 sequence (P15823 1-515): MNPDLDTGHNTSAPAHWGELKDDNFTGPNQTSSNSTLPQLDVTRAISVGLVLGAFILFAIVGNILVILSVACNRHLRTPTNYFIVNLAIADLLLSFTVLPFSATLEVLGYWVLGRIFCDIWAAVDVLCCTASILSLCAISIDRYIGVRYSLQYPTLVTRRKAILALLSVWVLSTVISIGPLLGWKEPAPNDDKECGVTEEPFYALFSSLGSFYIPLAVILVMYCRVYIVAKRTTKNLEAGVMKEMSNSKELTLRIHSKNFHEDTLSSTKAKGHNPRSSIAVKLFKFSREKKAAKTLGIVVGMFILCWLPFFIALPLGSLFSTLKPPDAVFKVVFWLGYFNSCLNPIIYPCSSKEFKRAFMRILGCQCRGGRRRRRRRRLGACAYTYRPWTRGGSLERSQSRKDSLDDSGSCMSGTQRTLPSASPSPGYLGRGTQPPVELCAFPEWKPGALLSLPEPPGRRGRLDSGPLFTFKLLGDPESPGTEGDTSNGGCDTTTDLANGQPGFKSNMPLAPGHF
# In short: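 Wistar rat liver α1B receptor preparation incubated with 0.25 nM [3H]prazosin and compound for 60 min at 25° C in 50 mM Tris-HCl pH 7.4, 0.5 mM EDTA; nonspecific binding defined with 10 μM phentolamine.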
# [2] = target: T2, human recombinant adrenergic α1D receptor (Homo sapiens, UniProt P25100); assay: Radioligand binding, adrenergic α1D receptor ([3H]Prazosin); conditions: 0.1 μM compound; HEK-293 cells; 0.6 nM [3H]Prazosin; read-out: Percentage inhibition of ligand binding, Adrenergic α1D
# T2 construct: expressed in transfected cells; host or cells: HEK-293
# T2 sequence (P25100 1-572): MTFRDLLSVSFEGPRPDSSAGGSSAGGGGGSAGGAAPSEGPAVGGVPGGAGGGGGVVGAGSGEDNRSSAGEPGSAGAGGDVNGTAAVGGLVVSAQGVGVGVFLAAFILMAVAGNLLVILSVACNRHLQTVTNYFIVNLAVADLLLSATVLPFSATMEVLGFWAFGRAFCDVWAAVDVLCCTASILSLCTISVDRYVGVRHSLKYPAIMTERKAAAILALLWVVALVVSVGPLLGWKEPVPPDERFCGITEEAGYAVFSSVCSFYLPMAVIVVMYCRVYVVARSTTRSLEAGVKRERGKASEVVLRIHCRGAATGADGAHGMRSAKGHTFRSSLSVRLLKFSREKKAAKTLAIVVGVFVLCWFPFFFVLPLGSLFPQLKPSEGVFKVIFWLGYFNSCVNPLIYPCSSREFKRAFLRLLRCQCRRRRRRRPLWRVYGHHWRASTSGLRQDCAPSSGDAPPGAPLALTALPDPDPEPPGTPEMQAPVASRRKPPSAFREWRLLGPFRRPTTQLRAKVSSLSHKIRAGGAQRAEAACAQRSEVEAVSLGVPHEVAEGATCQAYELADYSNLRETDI
# Method: Compounds were incubated with 0.6 nM [3H]Prazosin for 60 min at 25° C. Non-specific binding was estimated in the presence of 10 μM phentolamine. Receptor proteins were filtered and washed, the filters were then counted to determine [3H]Prazosin specifically bound. Compounds were screened at 1 μM or lower, using 1% DMSO as vehicle. Biochemical assay results are presented as the percent inhibition of specific binding in Table 2.
# [3] = target: T3, human recombinant adrenergic α2A receptor (Homo sapiens, UniProt P08913); assay: Radioligand binding, adrenergic α2A receptor ([3H]MK-912); conditions: 0.1 μM compound; Sf9 cells; 1 nM [3H]MK-912; read-out: Percentage inhibition of ligand binding, Adrenergic α2A
# T3 construct: expressed in transfected cells; host or cells: insect Sf9 cells
# T3 sequence (P08913 1-465): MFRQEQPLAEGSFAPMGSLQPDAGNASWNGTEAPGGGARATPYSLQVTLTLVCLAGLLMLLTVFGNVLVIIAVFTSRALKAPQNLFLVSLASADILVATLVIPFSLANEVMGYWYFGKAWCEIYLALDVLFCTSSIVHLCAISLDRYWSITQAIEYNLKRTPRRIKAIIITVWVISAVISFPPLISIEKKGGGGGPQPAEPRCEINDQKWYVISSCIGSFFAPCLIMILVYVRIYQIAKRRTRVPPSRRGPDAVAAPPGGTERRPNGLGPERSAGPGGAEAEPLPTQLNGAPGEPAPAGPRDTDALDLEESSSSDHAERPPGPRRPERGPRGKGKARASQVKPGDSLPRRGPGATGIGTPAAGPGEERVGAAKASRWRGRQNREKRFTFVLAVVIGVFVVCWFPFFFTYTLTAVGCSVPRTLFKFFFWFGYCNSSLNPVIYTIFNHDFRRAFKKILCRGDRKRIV
# In short: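 Percent inhibition of specific [3H]MK-912 (1 nM) binding measured by filtration counting, compounds tested at ≤1 μM in 1% DMSO. Receptor: human α2A from Sf9 cells; incubation 60 min, 25 °C, pH 7.4; 10 μM WB-4101 defined nonspecific binding.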
# [4] = target: T4, human recombinant adrenergic α2B receptor (Homo sapiens, UniProt P18089); assay: Radioligand binding, adrenergic α2B receptor ([3H]Rauwolscine); conditions: 0.1 μM compound, CHO-K1 cells, read-out: Percentage inhibition of ligand binding, Adrenergic α2B
# T4 construct: expressed in transfected cells; host or cells: CHO-K1
# T4 sequence (P18089 1-450): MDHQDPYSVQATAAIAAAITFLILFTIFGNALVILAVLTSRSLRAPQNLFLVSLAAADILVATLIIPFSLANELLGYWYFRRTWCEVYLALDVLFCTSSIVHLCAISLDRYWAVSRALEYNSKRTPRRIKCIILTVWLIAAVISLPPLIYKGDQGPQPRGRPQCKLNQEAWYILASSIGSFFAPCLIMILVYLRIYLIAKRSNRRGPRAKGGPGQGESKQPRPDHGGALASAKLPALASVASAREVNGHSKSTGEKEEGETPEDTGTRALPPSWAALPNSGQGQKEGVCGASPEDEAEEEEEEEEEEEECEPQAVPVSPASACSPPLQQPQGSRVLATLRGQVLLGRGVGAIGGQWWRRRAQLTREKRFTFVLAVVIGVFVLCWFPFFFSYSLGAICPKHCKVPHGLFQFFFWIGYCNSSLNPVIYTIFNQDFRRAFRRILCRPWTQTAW
# In short: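 Percent inhibition of specific [3H]Rauwolscine (2.5 nM) binding, compounds at ≤1 μM, 1% DMSO vehicle, 10 μM prazosin defining nonspecific. Receptor: human α2B expressed in CHO-K1 cells, 60 min incubation at 25 °C in Tris-HCl pH 7.4 buffer (MgCl2, EDTA, BSA); filtered, washed, counted.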
SMILES,inhibition at 0.1 µM [1] [%],inhibition at 0.1 µM [2] [%],inhibition at 0.1 µM [3] [%],inhibition at 0.1 µM [4] [%]
Cc1ccc2c(c1)c1c(n2-c2cscc2-c2sccc2C)CCN(C)C1 [Compound 39],67,62,98,70
"Cc1ccc2c(c1)c1c(n2-c2ccc(-c3ccncc3)cn2)CCN(C)C1 [Compound No. 132, 5-(3,4′-bipyridin-6-yl)-2,8-dimethyl-2,3,4,5-tetrahydro-1H-pyrido[4,3-b]indole]",33,28,17,69
"Cc1csc(-c2ccc(-n3c4c(c5cc(C)ccc53)CN(C)CC4)nc2)c1 [Compound No. 144, 2,8-dimethyl-5-(5-(4-methylthiophen-2-yl)pyridin-2-yl)-2,3,4,5-tetrahydro-1H-pyrido[4,3-b]indole]",68,52,72,95
Cc1ccc2c(c1)c1c(n2-c2ccccc2-c2cnc(N(C)C)nc2)CCN(C)C1 [Compound 31],36,80,74,67
"Cc1ccc2c(c1)c1c(n2-c2cccc(-c3ccc(S(N)(=O)=O)cc3)c2)CCN(C)C1 [Compound No. 158, 3′-(2,8-dimethyl-3,4-dihydro-1H-pyrido[4,3-b]indol-5(2H)-yl)biphenyl-4-sulfonamide]",7,14,73,60
CNC(=O)c1cccc(-c2cscc2-n2c3c(c4cc(C)ccc42)CN(C)CC3)c1 [Compound No. 154],46,70,20,42
Cc1cc(C)c2c(c1)c1c(n2-c2cscc2-c2ccncc2)CCN(C)C1 [Compound No. 149],16,8,-6,14
"Cc1ccc2c(c1)c1c(n2-c2ccccc2-c2ccc(C)s2)CCN(C)C1 [Compound No. 81, 2,8-dimethyl-5-(2-(5-methylthiophen-2-yl)phenyl)-2,3,4,5-tetrahydro-1H-pyrido[4,3-b]indole]",37,36,88,95
"Cc1ccc2c(c1)c1c(n2-c2ccc(-c3sccc3C)cn2)CCN(C)C1 [Compound No. 148, 2,8-dimethyl-5-(5-(3-methylthiophen-2-yl)pyridin-2-yl)-2,3,4,5-tetrahydro-1H-pyrido[4,3-b]indole]",63,68,50,90
Cc1cc(C)c2c(c1)c1c(n2-c2ccc3ncccc3c2)CCN(C)C1 [Compound 48],1,-5,19,16
Cc1ccc2c(c1)c1c(n2-c2cscc2-c2cnc(N(C)C)nc2)CCN(C)C1 [Compound 40],43,79,91,89
"Cc1ccc2c(c1)c1c(n2-c2cccc(-c3c(C)noc3C)c2)CCN(C)C1 [Compound No. 65, 4-(3-(2,8-dimethyl-3,4-dihydro-1H-pyrido[4,3-b]indol-5(2H)-yl)phenyl)-3,5-dimethylisoxazole]",14,1,33,46
"Cc1ccc2c(c1)c1c(n2-c2ccc(-c3ccnn3C)cn2)CCN(C)C1 [Compound No. 146, 2,8-dimethyl-5-(5-(1-methyl-1H-pyrazol-5-yl)pyridin-2-yl)-2,3,4,5-tetrahydro-1H-pyrido[4,3-b]indole]",70,79,26,54
Cc1ccc2c(c1)c1c(n2-c2cscc2-c2cncc3ccccc23)CCN(C)C1 [Compound 34],16,18,28,1
"Cc1ccc2c(c1)c1c(n2-c2ccc(-c3ccc(F)cc3)cn2)CCN(C)C1 [Compound No. 140, 5-(5-(4-fluorophenyl)pyridin-2-yl)-2,8-dimethyl-2,3,4,5-tetrahydro-1H-pyrido[4,3-b]indole]",69,56,70,96
"Cc1ccc2c(c1)c1c(n2-c2ccc3ccncc3c2)CCN(C)C1 [Compound No. 74, 5-(isoquinolin-7-yl)-2,8-dimethyl-2,3,4,5-tetrahydro-1H-pyrido[4,3-b]indole]",41,18,38,70
Cc1ccc2c(c1)c1c(n2-c2cscc2-c2c(C)noc2C)CCN(C)C1 [Compound No. 62],32,18,67,19
"Cc1ccc2c(c1)c1c(n2-c2cccc(-c3cnn(C)c3)c2)CCN(C)C1 [Compound 46, 2,8-dimethyl-5-(3-(1-methyl-1H-pyrazol-4-yl)phenyl)-2,3,4,5-tetrahydro-1H-pyrido[4,3-b]indole]",-7,8,48,21
